Laboratory results as given in paper PMC9629855, “Development of ASIC1a ligand-gated ion channel drug screening assays across multiple automated patch clamp platforms” (Frontiers in Molecular Neuroscience, 2022).
Several values for one entry are separate records, joined by “and”; a condition that tells them apart may be missing. Equal values may be shown once. Read-outs that look alike come from different tables or passages of the source. Bridges are numbered along the chain shown (N, C = ends). Where no end group is shown, it is not given here.

Tests used:
[1] = system: ASIC1a; set-up: method as in Nagaeva et al., 2016; settings: ref Nagaeva et al., 2016; cited from earlier work
[2] = target: T1, hASIC1a (Homo sapiens, UniProt P78348); assay: cell-based; set-up: host or cells: CHO (tetracycline-inducible); settings: pH 6.5 agonist, QPatch 48 single hole; for IC50: 2 min pre-incubation
T1 sequence (P78348 1-528): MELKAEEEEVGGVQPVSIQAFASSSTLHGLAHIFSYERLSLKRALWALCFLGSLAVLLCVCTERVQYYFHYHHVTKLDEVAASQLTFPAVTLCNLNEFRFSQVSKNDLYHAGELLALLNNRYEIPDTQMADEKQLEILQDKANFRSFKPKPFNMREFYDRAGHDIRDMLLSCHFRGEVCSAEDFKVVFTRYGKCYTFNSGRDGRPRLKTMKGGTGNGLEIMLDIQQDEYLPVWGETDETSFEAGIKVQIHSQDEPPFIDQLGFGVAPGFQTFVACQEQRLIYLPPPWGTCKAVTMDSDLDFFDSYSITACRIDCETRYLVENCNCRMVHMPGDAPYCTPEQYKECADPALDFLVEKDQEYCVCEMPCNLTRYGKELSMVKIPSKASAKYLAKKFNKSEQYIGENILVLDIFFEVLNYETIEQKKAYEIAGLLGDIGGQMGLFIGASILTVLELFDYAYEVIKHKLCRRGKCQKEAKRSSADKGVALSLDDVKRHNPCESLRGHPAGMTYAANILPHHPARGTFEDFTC
Protocol: (§1) CHO hASIC1a cells were cultured according to vendor instructions (B-SYS GmbH) and HEK cells using standard in-house methods. Both cell lines were harvested using optimized protocols and re-suspended in serum-free media (Gibco CHO-S-SFM from Thermo Fisher Scientific for CHO cells, and Ex-Cell 302 from Merck Sigma-Aldrich for HEK cells) to obtain a suspension of cells with smooth membranes and little debris, before transfer to the automated cell hotel consisting of a 60 ml plastic container (Sophion SB2050) and a magnetic stir bar to prevent cell clumping. An aliquot of cells is then aspirated into a 1 ml microcentrifuge tube and spun down (typically 150 g for 2.5 min) and the supernatant discarded before a user-defined volume of external solution is added by the robot and the cells re-suspended to achieve the desired final cell suspension density before application to primed QPlates. Cell capture, sealing and whole-cell access was achieved using optimized QPatch protocols before currents were recorded using a holding potential of −60 mV. […] Cells were washed three times with external pH 7.3 solution (5 μl) between applications of activating acidic solution to establish a stable ASIC1a current baseline. […] Each concentration of reference compound was applied to each cell before (i.e., during each pH 7.3 application period) and during each pH stimulus (IC50 mode). Thus, each concentration of test compound was pre-incubated with cells for at least 2 min before, and then during each acidic solution challenge, before wash-off in a neutral pH 7.3 solution that contained the next concentration of the same compound. Cells were allowed at least 2 min between applications of acidic solution to enable ASIC1a receptors to recover from desensitization.
(§2) Concentration-response xC50 curves from Patchliner and QPatch 48 experiments were calculated by plotting %inhibition (antagonists) or activation (pH) data against concentration in Prism software (GraphPad), using the variable sigmoidal dose-response function to fit the Hill equation with theoretical minimum block of 0% and maximum block of 100% and a free constant for Hill slope.
In addition, this protocol is designed to avoid tachyphylaxis associated with a more acidic pH stimulus, and it allows the development of a ligand-gated ASIC1a channel assay that can distinguish between agonists, partial agonists and antagonists. […] Compounds were tested using the cumulative concentration-response assay format shown in Figure 5A, which includes a 2 min pre-incubation period for each concentration to allow test samples to reach and equilibrate with their binding site(s) in the pore or large extracellular binding domain of ASIC1 receptor trimers. Agonist effects can also be detected during this period as membrane current data is recorded after every liquid addition. […] Mean inhibition data for each test sample is plotted against Log[compound] and fit with a concentration-response function.

[3] = system: "ASIC1-like" pH-activated currents in rat dorsal root ganglion neurons; set-up: method as in Dubé et al., 2005; settings: ref Dubé et al., 2005, read-out: Literature IC50; cited from earlier work
[4] = system: endogenous proton-activated currents in HEK cells; assay: cells; format: cell-based, human; settings: HEK cells
Protocol: as §1
as §2, with “slope. Inward current amplitudes were compared to the response to a control pH application (typically pH 6.5) prior to antagonist application or excitation by solutions of different pH to enable calculation of %inhibition or %activation for each cell.” for “slope.”
To quickly confirm a previous publication that HEK cells express endogenous ASIC1a receptor channels and assess the suitability of this cell system for drug discovery screening on APC platforms, we utilized the medium throughput QPatch 48 device. The QPatch uses 48 well microfluidic planar borosilicate chips and coated titanium pipette tips to make whole-cell recordings and sequentially apply small liquid volumes to enable rapid activation followed by slower deactivation (wash-off) of ligand-gated ionotropic responses. HEK cells were voltage-clamped at −60 mV and maintained in external solution at pH 7.4 to avoid steady-state desensitization of ASIC1 receptor channels. Cells were stimulated by external solutions with pH values ranging between 7.0 and 5.5 that evoked rapidly activating inward currents, followed by wash-off in pH 7.4 solution.

[5] = target: T1, hASIC1a; set-up: host or cells: CHO; settings: ref Diochot et al., 2012, cited from earlier work
[6] = system: TRPV1 receptor channels; set-up: method as in Diochot et al., 2012; settings: ref Diochot et al., 2012; cited from earlier work
[7] = target: T1, hASIC1a; assay: QPatch 48 APC, CHO hASIC1a, multi-hole (10 hole X-plate) recordings; format: cell-based; set-up: host or cells: CHO (tetracycline-inducible)
Protocol: as §1, §2
Before employing a more efficient multi-hole assay it is important to establish that this variant of the APC whole-cell recording format returns the same biophysics and pharmacology as single cell recordings. To this end we ran some of the reference compounds detailed above in 10 hole “X-plate” mode on the QPatch 48.

[8] = system: rat ASIC1a; set-up: method as in Diochot et al., 2012; settings: ref Diochot et al., 2012, read-out: IC50 potency for the rat ortholog; cited from earlier work

CC12CC3CC(C)(C1)CC(N)(C3)C2 [Memantine]
Literature inhibition at 500 μM [1]: 31% at 500 μM | IC50 ([2]; read-out: IC50 potency): 315000 nM | Hill slope [2]: 1.1

NC12CC3CC(CC(C3)C1)C2 [Amantadine]
IC50 ([2]; read-out: IC50 potency): 510000 nM | Hill slope [2]: 0.9

CC(C)C1c2cc(C3CC3c3ccc4cc(C(=N)N)ccc4c3)ccc2CCN1C (centres unmarked) [A-317567]
IC50 [3]: 2000 nM | IC50 ([2]; read-out: IC50 potency): 660 nM | Hill slope [2]: 0.9

N.N.N.N.N.N.N.N.N.N.N.N.N.N.[Cl-].[Cl-].[Cl-].[Cl-].[Cl-].[Cl-].[O-2].[O-2].[Ru+3].[Ru+3].[Ru+4] [Ruthenium Red]
inhibition of amplitude of currents activated by pH 6.5 ([4]; 1 μM Ruthenium Red): 12 ± 7%

Mambalgin-1 (LKCYQHGKVVTCHRDMKFCYHNTGMPFRNLKLILQGCSSSCSETENNKCCSTDRCNK; ends and bridges not checked; cysteine pairing not given here; UniProt P0DKR6 22-78, looked up) [snake toxin differing from Mambalgin-3 at one non-critical amino acid residue]
IC50 ([5]; Sun et al., 2018, read-out: quoted values against human ASIC1a channels): 127 nM and 197 nM

LKCYQHGKVVTCHRDMKFCYHNIGMPFRNLKLILQGCSSSCSETENNKCCSTDRCNK (disulfide 3-19, 12-37, 41-49, 50-55) [Mambalgin-3]
inhibition of TRPV1 receptor channels [6]: does not inhibit | block of endogenous proton-activated currents ([4]; 300 nM): ~75% | potentiation of endogenous pH-evoked responses [4]: no evidence for such modulation | IC50 ([4]; pH 6.5 activation, QPatch 48, read-out: cumulative IC50): 119 nM | IC50 ([5]; read-out: Literature IC50): 127 nM | IC50 ([2]; IC50 potency): 160 nM | Hill slope [2]: 1.8 | IC50 [7]: 160 nM | Hill slope (Hn) ([7]; multi-hole recordings, QPatch 48): 1.80 | IC50 [8]: 17 to 55 nM
